From ChEMBL document CHEMBL1121624, “Synthesis, biological evaluation, and preliminary structure-activity considerations of a series of alkylphenols as intravenous anesthetic agents” (J Med Chem, 1980)

Key:
[1] = Acute toxicity measured as median lethal dose in mice; type: organism-based; details: mouse, in vivo
Mus musculus [2] = species on record: Mus musculus; assay: Hypnotic activity was measured as dose which causes loss of righting reflex for a minimum period of 30s in 50% of mice; type: functional
Mus musculus [3] = species on record: Mus musculus; assay: Duration of analgesic action in mice was determined; B = brief, < 5 min; type: functional, organism-based
Mus musculus [4] = species on record: Mus musculus; assay: Speed of induction of analgesia in mice was determined; I = immediate, <10 s; type: functional, organism-based
[5] = Acute toxicity measured as median lethal dose in mice; Range is 60-80; type: organism-based; details: mouse, in vivo
Mus musculus [6] = species on record: Mus musculus; assay: Hypnotic activity was measured as dose which causes loss of righting reflex for a minimum period of 30s in 50% of mice; Range is 15-20; type: functional
[7] = Acute toxicity measured as median lethal dose in mice; Range is 100-120; type: organism-based; details: mouse, in vivo
Mus musculus [8] = species on record: Mus musculus; assay: Speed of induction of analgesia in mice was determined; VS = very slow, > 15s; type: functional, organism-based
Mus musculus [9] = species on record: Mus musculus; assay: Hypnotic activity was measured as dose which causes loss of righting reflex for a minimum period of 30s in 50% of mice; Range is 20-40; type: functional
Mus musculus [10] = species on record: Mus musculus; assay: Hypnotic activity was measured as dose which causes loss of righting reflex for a minimum period of 30s in 50% of mice; Range is 60-80; type: functional
Mus musculus [11] = species on record: Mus musculus; assay: Hypnotic activity was measured as dose which causes loss of righting reflex for a minimum period of 30s in 50% of mice; Range is 5-10; type: functional
Mus musculus [12] = species on record: Mus musculus; assay: Hypnotic activity was measured as dose which causes loss of righting reflex for a minimum period of 30s in 50% of mice; Range is 40-60; type: functional
Mus musculus [13] = species on record: Mus musculus; assay: Hypnotic activity was measured as dose which causes loss of righting reflex for a minimum period of 30s in 50% of mice; Range is 80-100; type: functional
[14] = Acute toxicity measured as median lethal dose in mice; Range is 160-180; type: organism-based; details: mouse, in vivo
Mus musculus [15] = species on record: Mus musculus; assay: Duration of analgesic action in mice was determined; M = moderate, 5-10 min; type: functional, organism-based
Mus musculus [16] = species on record: Mus musculus; assay: Speed of induction of analgesia in mice was determined; S = slow, 10-15 s; type: functional, organism-based
Mus musculus [17] = species on record: Mus musculus; assay: Hypnotic activity was measured as dose which causes loss of righting reflex for a minimum period of 30s in 50% of mice; Range is 30-40; type: functional
[18] = Acute toxicity measured as median lethal dose in mice; Range is 140-160; type: organism-based; details: mouse, in vivo
Mus musculus [19] = species on record: Mus musculus; assay: Hypnotic activity was measured as dose which causes loss of righting reflex for a minimum period of 30s in 50% of mice; Range is 10-15; type: functional
[20] = Acute toxicity measured as median lethal dose in mice; Range is 80-100; type: organism-based; details: mouse, in vivo
[21] = Acute toxicity measured as median lethal dose in mice; Range is 40-60; type: organism-based; details: mouse, in vivo
Mus musculus [22] = species on record: Mus musculus; assay: Duration of analgesic action in mice was determined; L = long, >10; type: functional, organism-based
in vivo = details: mouse
Mus musculus [23] = species on record: Mus musculus; assay: Hypnotic activity was measured as dose which causes loss of righting reflex for a minimum period of 30s in 50% of mice; Range is 20-25; type: functional
[24] = Acute toxicity measured as median lethal dose in mice; Range is 80-90; type: organism-based; details: mouse, in vivo
Mus musculus [25] = species on record: Mus musculus; assay: Hypnotic activity was measured as dose which causes loss of righting reflex for a minimum period of 30s in 50% of mice; Range is 10-20; type: functional

## CCC(C)c1cc(C)cc(C(C)CC)c1O (stereo unspecified)
[1]
  LD50: 140 mg/kg
Mus musculus [2]
  HD50: 30 mg/kg

## CCc1cccc(C(C)C)c1O
Mus musculus [3]
  Duration of action: Brief duration
Mus musculus [4]
  Speed of induction: Immediate
[5]
  LD50: 60 mg/kg
Mus musculus [6]
  HD50: 15 mg/kg

## CCCCc1c(C)ccc(C(C)C)c1O
[1]
  LD50: 150 mg/kg
Mus musculus [2]
  HD50: 50 mg/kg

## CCCCc1cccc(CCC)c1O
[7]
  LD50: 100 mg/kg
Mus musculus [3]
  Duration of action: Brief duration
Mus musculus [8]
  Speed of induction: Very slow
Mus musculus [9]
  HD50: 20 mg/kg

## CCc1c(C)cc(C)c(CC)c1O
Mus musculus [10]
  HD50: 60 mg/kg
[1]
  LD50: 160 mg/kg

## C=CCC1(C(C)C#CCC)C(=O)N=C([O-])N(C)C1=O.[Na+] (stereo unspecified) [METHOHEXITAL SODIUM]
[1]
  LD50: 30 mg/kg
Mus musculus [11]
  HD50: 5 mg/kg

## CCCc1cccc(CC)c1O
Mus musculus [3]
  Duration of action: Brief duration
Mus musculus [8]
  Speed of induction: Very slow
Mus musculus [9]
  HD50: 20 mg/kg
[1]
  LD50: 100 mg/kg

## CC(C)(C)c1ccc(O)c(C(C)(C)C)c1
[7]
  LD50: 100 mg/kg
Mus musculus [12]
  HD50: 40 mg/kg

## CC(C)(C)c1cccc(C(C)(C)C)c1O
[1]
  LD50: 120 mg/kg
Mus musculus [13]
  HD50: 80 mg/kg

## Cc1c(C(C)C)ccc(C(C)C)c1O
[1]
  LD50: 100 mg/kg
Mus musculus [2]
  HD50: 20 mg/kg

## Cc1cc(C)c(C(C)C)c(O)c1C(C)C
[14]
  LD50: 160 mg/kg
Mus musculus [2]
  HD50: 120 mg/kg

## CCC(C)c1cccc(C(C)CC)c1O (stereo unspecified)
Mus musculus [15]
  Duration of action: Moderate
Mus musculus [16]
  Speed of induction: Slow
[1]
  LD50: 60 mg/kg
Mus musculus [11]
  HD50: 5 mg/kg

## Cc1cccc(C2CCCCC2)c1O
Mus musculus [17]
  HD50: 30 mg/kg
Mus musculus [3]
  Duration of action: Brief duration
Mus musculus [8]
  Speed of induction: Very slow
[18]
  LD50: 140 mg/kg

## CNC1(c2ccccc2Cl)CCCCC1=O.Cl (stereo unspecified) [KETAMINE HYDROCHLORIDE]
Mus musculus [3]
  Duration of action: Brief duration
Mus musculus [16]
  Speed of induction: Slow
[1]
  LD50: 60 mg/kg
Mus musculus [19]
  HD50: 10 mg/kg

## CCc1cccc(CC)c1O
Mus musculus [3]
  Duration of action: Brief duration
Mus musculus [6]
  HD50: 15 mg/kg
Mus musculus [16]
  Speed of induction: Slow induction
[1]
  LD50: 100 mg/kg

## CCc1cc(C(C)C)c(O)c(C(C)C)c1
[20]
  LD50: 80 mg/kg
Mus musculus [2]
  HD50: 20 mg/kg

## CCC(C)c1ccc(O)cc1 (stereo unspecified)
[21]
  LD50: 40 mg/kg

## CCCC(C)c1cccc(C(C)CCC)c1O (stereo unspecified)
[14]
  LD50: 160 mg/kg
Mus musculus [6]
  HD50: 15 mg/kg
Mus musculus [8]
  Speed of induction: Very slow
Mus musculus [22]
  Duration of action: Long

## Cc1ccc(C(C)C)c(O)c1 [THYMOL]
Mus musculus [2]
  HD50: 30 mg/kg

## CCc1ccc(O)c(C(C)C)c1
[1]
  LD50: 120 mg/kg
Mus musculus [2]
  HD50: 40 mg/kg

## CC(C)c1cccc(C(C)C)c1O [PROPOFOL]
Mus musculus [3]
  Duration of action: Brief duration
Mus musculus [4]
  Speed of induction: Immediate induction
In vivo
  LD50: 50 mg/kg
Mus musculus [11]
  HD50: 5 mg/kg

## CCC(C)c1cccc(C(C)C)c1O (stereo unspecified)
Mus musculus [3]
  Duration of action: Brief duration
Mus musculus [4]
  Speed of induction: Immediate
[1]
  LD50: 50 mg/kg
Mus musculus [11]
  HD50: 5 mg/kg

## CCCC(C)C1(CC)C(=O)[N-]C(=S)NC1=O.[Na+] (stereo in doubt; form 2) [THIOPENTAL SODIUM]
Mus musculus [23]
  HD50: 20 mg/kg
[24]
  LD50: 80 mg/kg

## CCCC(C)c1cccc(CC)c1O (stereo unspecified)
[7]
  LD50: 100 mg/kg
Mus musculus [25]
  HD50: 10 mg/kg
Mus musculus [3]
  Duration of action: Brief duration
Mus musculus [4]
  Speed of induction: Immediate

## CC(C)c1cccc(C2CCCCC2)c1O
Mus musculus [17]
  HD50: 30 mg/kg
[7]
  LD50: 100 mg/kg
Mus musculus [16]
  Speed of induction: Slow
Mus musculus [22]
  Duration of action: Long

## CCC(C)c1ccccc1O (stereo unspecified)
Mus musculus [17]
  HD50: 30 mg/kg

## Oc1ccccc1 [PHENOL]
[1]
  LD50: 100 mg/kg
Mus musculus [2]
  HD50: 70 mg/kg

## Cc1cc(C(C)(C)C)c(O)c(C(C)(C)C)c1 [BUTYLATED HYDROXYTOLUENE]
Mus musculus [13]
  HD50: 80 mg/kg
